{"source": "patent US20080279914A1", "about": "“Transdermal composition comprising piroxicam-inorganic material complex and patch system comprising the same” (priority 2006, published 2008)", "origin": "cited, not measured here", "details": "orally administered", "data": [{"smiles": "CN1C(C(=O)Nc2ccccn2)=C(O)c2ccccc2S1(=O)=O", "note": "[piroxicam]", "values": [{"measurement": "drug discharged unchanged in the urine", "value": "less than 5%"}]}]}
